Entries after “also recorded” stand apart in the source; their conditions may differ.
Assays:
[1] = test system: enteroendocrine and goblet cells; assay: Enteroendocrine (chromogranin A) and goblet cell (Alcian blue) differentiation; type: in vivo, mice; conditions: FIG. 6a-b
Procedure: Tissues were fixed in 10% formalin, paraffin embedded, and sectioned. Antigen retrieval was performed with Borg Decloaker RTU solution (Biocare Medical) in a pressurized Decloaking Chamber (Biocare Medical) for 3 minutes. Antibodies: rat anti-BrdU (1:2000; Abeam 6326), rabbit phospho-S6 Ser235/236 (1:500, CST 4858), rabbit cleaved caspase 3 (1:500; CST 9664), rabbit chromogranin A (1:3000, Abeam 15160), rabbit Lysozyme (1:2000; Thermo), rabbit Bst-1 (1:1000, Abeam 74301) and mouse Bst-1 (1:100 to 500, BD Pharmingen). For mouse Bst-1, the M.O.M (mouse on mouse) kit was used according to the manufacturer's instructions (Vector labs PK-2200). Biotin conjugated secondary donkey anti-rabbit or rat antibodies were used from Jackson ImmunoResearch. The Vectastain Elite ABC immunoperoxidase detection kit (Vector Labs PK-6101) followed by Dako Liquid DAB+ Substrate (Dako) was used for visualization. For immunofluorescence Alexa Fluor 568 secondary antibodies (Invitrogen) were used. All antibody incubations were performed with Common Antibody Diluent (Biogenex).

Lgr5^hi ISCs = assay: Frequency of Lgr5hi ISCs by flow cytometry in rapamycin-treated mice; type: in vivo; conditions: Rapamycin 4 mg/kg daily i.p., 4 weeks, n=13-14, FIG. 3g
From the text: (§1) Mice were housed in the Unit for Laboratory Animal Medicine at the Whitehead Institute for Biomedical Research. Lgr5-EGFP-IRES-CreERT2 mice (Strain name: B6.129P2-Lgr5tm1(cre/ERT2)Cle/J, Stock Number: 008875) were purchased from Jackson Laboratories. UbiquitinC-CreERT2 mice were obtained from the Jackson Laboratory (Strain Name: B6; 129S-Tg(UBC-cre/ERT2)1Ejb/J, Stock Number: 007001). Rictor floxed mice were generated as described in^27 and backcrossed to C57BL/6 for at least 6 generations. TSC1^loxp/loxp mice were the generous gift of D. Kwiatkowski (Harvard Medical School) and backcrossed to C57BL/6 for at least 6 generations. Rosa26-CreERT2 mice (Rosa26 or R26) were obtained from the Jackson Laboratory (Strain 15 Name: B6.129-Gt(ROSA)26Sor^iml(cre/ERT2)Tyj/J, Stock Number 008463). CR was achieved by providing individual or paired mice a daily portion of a chow diet fortified with vitamins and minerals amounting to 60% of the daily food intake of their ad libitum counterparts^20. All adult mice used in CR experiments were between the ages of 10 to 24 weeks and were sacrificed prior to their daily feeding. Rictor or TSC1 was excised by treatment with tamoxifen suspended in corn or sunflower seed oil (Spectrum) at a concentration of 10 mg/mL, and 200 μl per 25 g of body weight was injected intraperitoneally into mice once daily for 5-7 days. […]

intestinal crypts = assay: Organoid formation (clonogenicity) of intestinal crypts isolated from treated mice; type: in vivo
From the text: (§2) Mice were housed in the Unit for Laboratory Animal Medicine at the Whitehead Institute for Biomedical Research. Lgr5-EGFP-IRES-CreERT2 mice (Strain name: B6.129P2-Lgr5tm1(cre/ERT2)Cle/J, Stock Number: 008875) were purchased from Jackson Laboratories. UbiquitinC-CreERT2 mice were obtained from the Jackson Laboratory (Strain Name: B6; 129S-Tg(UBC-cre/ERT2)1Ejb/J, Stock Number: 007001). Rictor floxed mice were generated as described in^27 and backcrossed to C57BL/6 for at least 6 generations. TSC1^loxp/loxp mice were the generous gift of D. Kwiatkowski (Harvard Medical School) and backcrossed to C57BL/6 for at least 6 generations. Rosa26-CreERT2 mice (Rosa26 or R26) were obtained from the Jackson Laboratory (Strain 15 Name: B6.129-Gt(ROSA)26Sor^iml(cre/ERT2)Tyj/J, Stock Number 008463). CR was achieved by providing individual or paired mice a daily portion of a chow diet fortified with vitamins and minerals amounting to 60% of the daily food intake of their ad libitum counterparts^20. All adult mice used in CR experiments were between the ages of 10 to 24 weeks and were sacrificed prior to their daily feeding. Rictor or TSC1 was excised by treatment with tamoxifen suspended in corn or sunflower seed oil (Spectrum) at a concentration of 10 mg/mL, and 200 μl per 25 g of body weight was injected intraperitoneally into mice once daily for 5-7 days. […] Mice were allowed to recover for at least 7 days after the last tamoxifen injection prior to any experiments. In vivo fate mapping in Lgr5-EGFP-IRES-reERT2; Rosa26loxpstoploxp-LacZ compound mice was done with a single injection of tamoxifen given at 200 μl per 25 g. As described previously^28, Rapamycin (LC Laboratories) was administered by intraperitoneal injection for 7 to 28 consecutive doses at 4 mg/kg. It was reconstituted in absolute ethanol at 10 mg/ml and diluted in 5% Tween-80 (Sigma) and 5% PEG-400 (Hampton Research) before injection. The final volume of all injections was 200 μl. Regular insulin (Lilly) was administered at 0.75 U/kg diluted in PBS 20 minutes prior to sacrificing fasted mice.
Small intestines were removed and the fat/mesentery was dissected away. The intestinal lumen was washed with ice cold PBS (Mg—/Ca—) using a 18 G feeding needle (Roboz FN-7905) until the intestines appeared white/pink. They were then opened longitudinally. The mucous was removed by gently rubbing the intestine between fingers in cold PBS. The intestines were cut into 3 to 5 mm fragments and placed into 50 ml conical tubes that were fill with ice cold 30 ml of PBS (Mg—/Ca—)/EDTA (10 mM). The samples were incubated and shook intermittently on ice for 30 minutes continuously discarding and replacing (at least 3 times) the supernatant. […]

Paneth cells [2] = assay: Frequency of Paneth cells by flow cytometry in rapamycin-treated mice; type: in vivo; conditions: Rapamycin 4 mg/kg daily i.p., 4 weeks, n=13-14, FIG. 3h
From the text: as §1

Paneth cells [3] = assay: Paneth cell numbers in small intestine after 10 Gy ionizing radiation (histology); type: in vivo, mice; conditions: for number of Paneth cells vs irradiated control, pre- and post-treatment: 4 mg/kg IP daily 1 week, 10 Gy gamma rays, then intermittent rapamycin two weeks, FIG. 14c; for number of Paneth cells vs irradiated control, post-treatment only: 10 Gy followed by intermittent rapamycin over two weeks, FIG. 14b
Procedure: Paneth cells are essential to the survival of Lgr5+ intestinal stem cells. […] The clonogenicity of ISCs is enhanced by co-culturing of these cells with Paneth cells from mice treated with caloric restriction or rapamycin (FIG. 13a). […] Mice were also treated with 10 Gy of radiation followed by intermittent treatment with rapamycin over the two weeks. […] Accordingly, rapamycin and derivatives or analogs or other agents thereof which inhibit mTOR, and/or and caloric restriction can be employed as agents for increasing the number and function of intestinal stem cells and Paneth cells, and as radioprotective agents against the acute and late toxicities of deliberate and accidental exposure to ionizing radiation.

mTORC1 = biological target: T1, mTORC1 (Mus musculus, UniProt P26883+Q9JLN9); assay: Phospho-S6 (P-S6) immunostain as mTORC1 reporter in intestine / sorted Paneth cells; type: in vivo, mice; conditions: overnight fasted mice treated before refeeding 5 hours, FIG. 2a
T1 construct: from tissue; host or cells: mouse small intestine sections, isolated crypts and sorted Paneth cells
From the text: as §2, with “mice. […]” for “mice.”

CO[C@H]1C[C@@H]2CC[C@@H](C)[C@@](O)(O2)C(=O)C(=O)N2CCCC[C@H]2C(=O)O[C@H]([C@H](C)C[C@@H]2CC[C@@H](O)[C@H](OC)C2)CC(=O)[C@H](C)/C=C(\C)[C@@H](O)[C@@H](OC)C(=O)[C@H](C)C[C@H](C)/C=C/C=C/C=C/1C [Rapamycin, sirolimus] was tested. Which “effects on enteroendocrine and goblet cell differentiation” value [1] did it give?
Its value is “minimal effects”.

What about the “increase in frequency of ISCs vs vehicle” value (Lgr5^hi ISCs) of the same compound?
The value was “more than 1.5 fold”.

And the “effect of combination of CR and rapamycin on crypt organoid formation” value (intestinal crypts; CR+R treated mice, FIG. 3i)?
The value was “non-additive”.

What about the “organoids per intestinal crypt, increase vs vehicle-treated mice” value (intestinal crypts; crypts isolated from mice given 4 mg/kg daily, n=3-5, FIG. 3i) of the same compound?
The value was about 2 fold.

What about the “organoid body formation of crypts compared with CR” value (intestinal crypts; mice treated for 1 week, FIG. 3i) of the same compound?
The value was “as capable of forming organoid bodies as those from mice on CR”.

What about the “crypt clonogenicity after Rictor deletion (mTORC2 independence)” value (intestinal crypts; rapamycin 1 to 3 weeks after Rictor-deletion in Rictorfl/fl UBC-CreERT2 mice vs WT, FIG. 3k) of the same compound?
The value was “increased the clonogenicity of crypts irrespective of whether they were isolated from adult intestines expressing or lacking Rictor; also recorded: increased crypt clonogenicity to a similar extent as those isolated from rapamycin treated wild-type (WT) mice”.

And the “increase in frequency of Paneth cells vs vehicle” value (Paneth cells [2])?
Its value is “more than 1.5 fold”.

And the “number of Paneth cells vs irradiated control, pre- and post-treatment” value (Paneth cells [3])?
The value was “increase in the number of morphologically normal Paneth cells”.

What about the “number of Paneth cells vs irradiated control, pre- and post-treatment” value (Paneth cells [3]; listed as rapamycin) of the same compound?
The value was “significantly higher numbers of Paneth cells”.

What about the “number of Paneth cells vs irradiated control, post-treatment only” value (Paneth cells [3]) of the same compound?
Its value is “increase in the number of morphologically normal Paneth cells”.

And the “number of Paneth cells vs irradiated control, post-treatment only” value (Paneth cells [3]; listed as rapamycin)?
Its value is “significantly higher numbers of Paneth cells”.

And the “mTORC1 activation (P-S6) in Paneth cells by feeding” value (mTORC1)?
The value was “blocked this activation”.

Reference: US9532997B2, “Compositions and methods for promoting intestinal stem cell function” (Whitehead Institute for Biomedical Research, priority 2012, dated 2017)
